Laboratory results reported in patent US20220064204A1, “AMORPHOUS FORM OF 5-BROMOPYRIDIN-3-YL 3-DEOXY-3-[4-(3,4,5-TRIFLUOROPHENYL)-1H-1,2,3-TRIAZOL-1-YL]-1-THIO-ALPHA-D-GALACTOPYRANOSIDE” (GALECTO BIOTECH AB, priority 2018, published 2022).
Read-outs that look alike come from different tables or passages of the source.

Tests used:
[1] = Phase 1 first-in-human study, single oral dose pharmacokinetics in healthy subjects (drug layered formulation capsules); type: in vivo; details: plasma; for half-life / AUC(0-t) / Tmax / AUC(0-inf): human; for half-life / AUC(0-t) / Tmax: po; for half-life / AUC(0-t) / AUC(0-inf): geometric mean; for AUC(0-t): read-out: AUC0-24; for Tmax / Tlog: median
Description: The first part of this study aims to obtain safety, tolerability and pharmacokinetic data when the compound of formula I is administered orally as a single dose in healthy subjects using the above drug layered formulation.
Experimental Data from Healthy Subject Cohort A1: 5 mg Compound of Formula I (API)
6 healthy subjects received 5 mg of compound of formula I capsules orally as a single dose in the fasted state, and 2 subjects receive placebo. The first 2 subjects (1 active and 1 placebo) were dosed 24 hours before the remaining subjects. Blood samples for pharmacokinetic analysis of plasma API concentrations were obtained by venipuncture before dosing, and then at 0.5, 1, 1.5, 2, 3, 4, 6, 8, 12, 16, 24, 36, and 48 hours post dose. […]
Experimental Data from Healthy Subject Cohort A3 Fasted: 50 mg Compound of Formula I (API)
(§1) 6 healthy subjects received 50 mg of compound of formula I capsules orally as a single dose in the fasted state, and 2 subjects receive placebo. The first 2 subjects (1 active and 1 placebo) were dosed 24 hours before the remaining subjects. Blood samples for pharmacokinetic analysis of plasma API concentrations were obtained by venipuncture before dosing, and then at 0.5, 1, 1.5, 2, 3, 4, 6, 8, 12, 16, 24, 36, and 48 hours post dose.
Experimental Data from Healthy Subject Cohort A3 Fed: 50 mg Compound of Formula I (API)
as §1, with “fed” for “fasted”, “dose. […]” for “dose.”
Experimental Data from Healthy Subject Cohort A5: 100 mg Compound of Formula I (API)
as §1, with “100” for “50”
Experimental Data from Healthy Subject Cohort A6: 200 mg Compound of Formula I (API)
as §1, with “200” for “50”
Experimental Data from Healthy Subject Cohort A7: 400 mg Compound of Formula I (API)
as §1, with “400” for “50”

[2] = First in human study, safety and tolerability, single and multiple ascending doses; type: in vivo; details: oral
Description: The compound of formula I is tested in a Phase 1, randomized, double-blind, placebo-controlled, first-in-human study in which the safety, tolerability, and pharmacokinetics of orally administered compound of formula I is evaluated in healthy adult subjects and adult subjects with indication of suspected Nonalcoholic steatohepatitis (NASH) and liver fibrosis.
This study aims to obtain safety, tolerability and pharmacokinetic data when the compound of formula I is administered orally as single doses and as multiple doses to healthy subjects. In addition, an optional part has been included to obtain safety and tolerability data when the compound of formula I is administered orally as multiple doses to subjects with suspected Nonalcoholic steatohepatitis (NASH) and liver fibrosis.

[3] = Solubility of the crystalline compound (statement); type: physicochemical; details: highly crystalline compound
[4] = Dissolution of filled capsules / pellets in biorelevant media (FaSSIF); type: physicochemical; details: 18 hours
Description: As an alternative to poloxamer 188, the surfactant SLS was also evaluated to aid in the dispersion of the SDD.
The resulting drug layered pellets were analysed by UV-HPLC to determine the drug loading as well as by SEM, XRPD and Dissolution in biorelevant media.
The dissolution profile of the drug-layered pellets was compared to the dissolution profiles of the API alone as well an ASD formulation (physical mixture of SDD (API:HPMC603=1:2) and poloxamer 188) (see FIG. 4).

[5] = Phase 1 study, multiple oral dose (twice a day for 10 days) pharmacokinetics in healthy subjects; type: in vivo, human; details: fasted state; for half-life: po
Description: The second part of this study aims to obtain safety, tolerability and pharmacokinetic data when the compound of formula I is administered orally dosed twice a day for 10 days in healthy subjects using the above drug layered formulation.
Experimental Data from Healthy Subject Cohort B1: 50 mg Compound of Formula I (API)
(§2) 8 healthy subjects received 50 mg of compound of formula I capsules and 3 subjects receive placebo orally twice a day for 10 days. Blood samples for pharmacokinetic analysis of plasma API concentrations were obtained by venipuncture before dosing on day 1, and then at 0.5, 1, 1.5, 2, 3, 4, 6, 8, 12, 16, 24, 36, and 48 hours post dose. Blood sampling was repeated on day 10.
Experimental Data from Healthy Subject Cohort B2: 100 mg Compound of Formula I
as §2, with “received 100” for “received 50”, “16, 24” for “16, 24, 36, and 48”, “repeated at” for “repeated on”

[6] = Material characterization by TGA and dynamic vapor sorption (DVS); type: physicochemical; details: crystalline compound
[7] = 5 mg, single oral dose 5 mg, fasted state
[8] = 20 mg, single oral dose 20 mg, fasted state
[9] = 50 mg, single oral dose 50 mg (1 × 50 mg), fasted state
[10] = 50 mg, single oral dose 50 mg (1 × 50 mg), fed state
[11] = 100 mg, single oral dose 100 mg, fasted state
[12] = 200 mg, single oral dose 200 mg, fasted state
[13] = 400 mg, single oral dose 400 mg, fasted state
[14] = single oral dose 100 mg, fasted state
[15] = single oral dose 200 mg, fasted state
[16] = single oral dose 400 mg, fasted state
[17] = 50 mg BID oral, Day 10, healthy subjects, geometric mean
[18] = 100 mg BID oral, Day 10, healthy subjects, geometric mean

half-life [1, 7]: 11.2 h | AUC(0-t) [1, 7]: 585 ng·h/mL | Tmax [1, 7]: 2 h | half-life [1, 8]: 12.4 h | AUC(0-t) [1, 8]: 2670 ng·h/mL | half-life [1, 9]: 12.6 h | AUC(0-t) [1, 9]: 3400 ng·h/mL | Tmax [1, 9]: 3 h | half-life [1, 10]: 12.8 h | AUC(0-t) [1, 10]: 3820 ng·h/mL | Tmax [1, 10]: 5 h | AUC(0-t) ([1]; 50 mg, single oral dose 50 mg (10 × 5 mg), fasted state): 5770 ng·h/mL | half-life [1, 11]: 12.1 h | AUC(0-t) [1, 11]: 4900 ng·h/mL | Tmax [1, 11]: 3.5 h | half-life [1, 12]: 15.1 h | AUC(0-t) [1, 12]: 9050 ng·h/mL | Tmax [1, 12]: 3.5 h | half-life [1, 13]: 14.5 h | AUC(0-t) [1, 13]: 15100 ng·h/mL | Tmax [1, 13]: 4 h | AUC(0-inf) [1, 14]: 6360 ng·h/mL | AUC(0-inf) [1, 15]: 13100 ng·h/mL | AUC(0-inf) [1, 16]: 21500 ng·h/mL | Tlog ([1]; single oral dose 5 mg, fasted state): 0.00 h | Tlog ([1]; single oral dose 20 mg, fasted state): 0.00 h | Tlog ([1]; single oral dose 50 mg (1 × 50 mg), fasted state): 0.00 h | Tlog ([1]; single oral dose 50 mg (1 × 50 mg), fed state): 0.75 h | Tlog ([1]; single oral dose 50 mg (10 × 5 mg), fasted state): 0.00 h | Tlog [1, 14]: 0.00 h | Tlog [1, 15]: 0.00 h | Tlog [1, 16]: 0.00 h | solubility [3]: relatively low solubility | API released in the dissolution media ([4]; FaSSIF): less than 12% | API concentration in FaSSIF ([4]; dissolution): 0.011 mg/mL | Cmin [5, 17]: 249 ng/mL | RAAUC [5, 17]: 2.31 | Cmin [5, 18]: 338 ng/mL | RAAUC [5, 18]: 2.11 | half-life ([5]; human, plasma, 50 mg, 50 mg BID oral, Day 1, geometric mean, unreliable due to short sampling duration 0-12 hours, exploratory): 7.34 h | half-life ([5]; human, plasma, 50 mg, 50 mg BID oral, Day 10, healthy subjects, geometric mean): 20.2 h | half-life ([5]; human, plasma, 100 mg, 100 mg BID oral, Day 1, geometric mean, unreliable due to short sampling duration 0-12 hours, exploratory): 7.04 h | half-life ([5]; human, plasma, 100 mg, 100 mg BID oral, Day 10, healthy subjects, geometric mean): 12.5 h | Cmax ([5]; human, plasma, 50 mg BID oral, Day 1, healthy subjects, geometric mean): 330 ng/mL | hydrate formation ([6]; DVS): no indication of hydrate formation | hygroscopicity ([6]; dynamic vapor sorption (DVS)): not hygroscopic
Structure (SMILES): OC[C@H]1O[C@H](Sc2cncc(Br)c2)[C@H](O)[C@@H](n2cc(-c3cc(F)c(F)c(F)c3)nn2)[C@H]1O [GB1211, 5-Bromopyridin-3-yl 3-deoxy-3-[4-(3,4,5-trifluorophenyl)-1H-1,2,3-triazol-1-yl]-1-thio-α-D-galactopyranoside]
safety and tolerability in man [2]: safe and well tolerated
